“Also recorded” adds a separate entry of the source.
Experiments:
[1] = target: T1, APJ (Apelin receptor) (Homo sapiens, UniProt P35414); test: Analysis of ligand bias across APJ pathways; type: cell-based; design: APJ membrane preparations were obtained from transiently transfected HEK293 cells; host or cells: HEK293 cells, transiently transfected; membranes prepared; conditions: reference ligand Apelin-13, reference pathway calcium release
T1 sequence (P35414 1-380): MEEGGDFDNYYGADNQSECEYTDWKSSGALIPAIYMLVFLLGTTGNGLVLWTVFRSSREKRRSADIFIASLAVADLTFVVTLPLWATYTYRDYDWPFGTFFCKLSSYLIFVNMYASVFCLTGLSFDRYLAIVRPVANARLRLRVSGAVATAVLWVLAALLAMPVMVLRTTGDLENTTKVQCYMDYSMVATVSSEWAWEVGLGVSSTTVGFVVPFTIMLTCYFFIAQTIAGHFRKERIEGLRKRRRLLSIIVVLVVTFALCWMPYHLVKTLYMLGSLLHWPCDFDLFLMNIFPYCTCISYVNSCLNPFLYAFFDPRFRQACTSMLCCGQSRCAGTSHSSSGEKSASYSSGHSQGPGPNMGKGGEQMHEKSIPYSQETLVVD
Description: The concentration-response data for the ligands in various assays were analyzed to determine the biases of the ligands for G protein dependent signaling or β-arrestin dependent signaling, according to a previously published method ([Kenakin et al., 2012]; [Hager et al., 2016]; [Hothersall et al., 2017]). Briefly, the concentration-response data for each ligand were fitted to the Black-Leff operation model to obtain the values of τ and K A, using the following equation: Response=[[…] where [A] is the concentration of the agonist, E m is the maximal response of the system, n is the transducer slope, and K A and τ describe the affinity and efficacy of the agonist, respectively. In the data fitting, the reparametrized form of the equation proposed by [Kenakin et al. (2012)] was used: Response=[…]β2} where β 1 and β 2 are the natural logarithm of K A and τ, respectively, and E m was set to 1. […] The ΔΔlog (τ/K A), or Log (Bias), which is the logarithm of the bias factor for a given pathway over a reference pathway (here, intracellular calcium release), was calculated for each ligand as Δlog (τ/K A)-Δlog (τ/K A)Calcium. The 95% confidence interval (CI) was expressed as the mean ± standard error; Log (Bias) values, whose 95% CI crosses 0, were considered statistically insignificant.

[2] = target: APJ; design: method as in Couvineau et al., 2020; conditions: displacement of 125I-pE13F; ref Couvineau et al., 2020; cited from earlier work

CSCC[C@H](NC(=O)[C@@H]1CSSC[C@H](NC(=O)[C@H](CC(N)=O)NC(=O)[C@H](Cc2c[nH]cn2)NC(=O)[C@H](CCCCN)NC(=O)[C@H](CCCNC(=N)N)NC(=O)[C@@H](N)CC(C)C)C(=O)N[C@@H](CC(C)C)C(=O)N[C@@H](CCC(N)=O)C(=O)N[C@@H](CCCNC(=N)N)C(=O)N[C@@H](CCCNC(=N)N)C(=O)N1)C(=O)N1CCC[C@H]1C(=O)N[C@@H](CC(C)C)C(=O)N[C@@H](Cc1c[nH]cn1)C(=O)N[C@@H](CO)C(=O)N[C@@H](CCCNC(=N)N)C(=O)N[C@H](C(=O)N1CCC[C@H]1C(=O)N[C@@H](Cc1ccccc1)C(=O)N1CCC[C@H]1C(=O)O)C(C)C [Elabela-21]
signaling bias profile (in words) [1]: much stronger activity on the cAMP pathway; also recorded: weaker activity; also recorded: very weak effects on β-arrestin dependent pathways
pKi [2]: 9.49
